Measurements from the CheMixHub viscosity set.
± gives the uncertainty stated by the source.

Test: xn = mol fraction of the nth substance listed

CCCCCCCCCCCC + C1CCCCC1
Conditions	viscosity [mPa·s]
297.78 K, 101.3 kPa, x1 = 0.4996	1.131 ± 0.014
298.13 K, 101.3 kPa, x1 = 0.7489	1.247 ± 0.016
298.15 K, 100 kPa, x2 = 0.2	1.263 ± 0.051
298.15 K, 100 kPa, x2 = 0.4	1.171 ± 0.047
298.15 K, 100 kPa, x2 = 0.6	1.071 ± 0.043
298.15 K, 100 kPa, x2 = 0.8	0.979 ± 0.039
298.15 K, 101.33 kPa, x1 = 0.0169	0.9114 ± 0.0077
298.15 K, 101.33 kPa, x2 = 0.1549	1.299 ± 0.011
298.15 K, 101.33 kPa, x2 = 0.2886	1.237 ± 0.01
298.15 K, 101.33 kPa, x2 = 0.3945	1.187 ± 0.0097
298.15 K, 101.33 kPa, x2 = 0.5031	1.138 ± 0.0094
298.15 K, 101.33 kPa, x2 = 0.5879	1.098 ± 0.0091
298.15 K, 101.33 kPa, x2 = 0.6636	1.048 ± 0.0087
298.15 K, 101.33 kPa, x2 = 0.7601	1.011 ± 0.0084
298.15 K, 101.33 kPa, x2 = 0.7983	0.9774 ± 0.0082
298.15 K, 101.33 kPa, x2 = 0.8536	0.9573 ± 0.008
298.15 K, 101.33 kPa, x2 = 0.8943	0.9433 ± 0.0079
298.15 K, 101.33 kPa, x2 = 0.941	0.9223 ± 0.0078
298.31 K, 101.3 kPa, x1 = 0.5001	1.121 ± 0.014
298.35 K, 101.3 kPa, x1 = 0.5001	1.116 ± 0.014
298.38 K, 101.3 kPa, x1 = 0.2501	0.9923 ± 0.017
298.43 K, 101.3 kPa, x1 = 0.2501	0.9883 ± 0.017
298.43 K, 101.3 kPa, x1 = 0.4996	1.114 ± 0.014
298.61 K, 101.3 kPa, x1 = 0.7489	1.232 ± 0.015
298.62 K, 101.3 kPa, x1 = 0.7489	1.232 ± 0.015
308.76 K, 101.3 kPa, x1 = 0.5001	0.9475 ± 0.011
308.86 K, 101.3 kPa, x1 = 0.5001	0.948 ± 0.011
323.15 K, 100 kPa, x2 = 0.2	0.8615 ± 0.035
323.15 K, 100 kPa, x2 = 0.4	0.8075 ± 0.032
323.15 K, 100 kPa, x2 = 0.6	0.7427 ± 0.03
323.15 K, 100 kPa, x2 = 0.8	0.6736 ± 0.027

CCCCCCCCCCO + C1CCCCC1
Conditions	viscosity [mPa·s]
293.15 K, 100 kPa, x2 = 0.0822	12.17 ± 0.98
293.15 K, 100 kPa, x2 = 0.1602	10.37 ± 0.83
293.15 K, 100 kPa, x2 = 0.2397	8.74 ± 0.7
293.15 K, 100 kPa, x2 = 0.3476	6.8 ± 0.55
293.15 K, 100 kPa, x2 = 0.4402	5.45 ± 0.44
293.15 K, 100 kPa, x2 = 0.5604	3.92 ± 0.32
293.15 K, 100 kPa, x2 = 0.6506	2.95 ± 0.24
293.15 K, 100 kPa, x2 = 0.7397	2.18 ± 0.18
293.15 K, 100 kPa, x2 = 0.8508	1.48 ± 0.12
293.15 K, 100 kPa, x2 = 0.94	1.1 ± 0.09
303.15 K, 100 kPa, x2 = 0.0822	8.4 ± 0.67
303.15 K, 100 kPa, x2 = 0.1602	7.28 ± 0.58
303.15 K, 100 kPa, x2 = 0.2397	6.22 ± 0.5
303.15 K, 100 kPa, x2 = 0.3476	4.96 ± 0.4
303.15 K, 100 kPa, x2 = 0.4402	4.02 ± 0.32
303.15 K, 100 kPa, x2 = 0.5604	2.97 ± 0.24
303.15 K, 100 kPa, x2 = 0.6506	2.31 ± 0.19
303.15 K, 100 kPa, x2 = 0.7397	1.77 ± 0.14
303.15 K, 100 kPa, x2 = 0.8508	1.29 ± 0.1
303.15 K, 100 kPa, x2 = 0.94	0.98 ± 0.08
303.15 K, 101.33 kPa, x1 = 0.1009	1.08 ± 0.013
303.15 K, 101.33 kPa, x1 = 0.1983	1.404 ± 0.017
303.15 K, 101.33 kPa, x1 = 0.2985	1.829 ± 0.021
303.15 K, 101.33 kPa, x1 = 0.3954	2.357 ± 0.027
303.15 K, 101.33 kPa, x1 = 0.5	3.076 ± 0.035
303.15 K, 101.33 kPa, x1 = 0.5845	3.781 ± 0.043
303.15 K, 101.33 kPa, x1 = 0.6939	4.863 ± 0.054
303.15 K, 101.33 kPa, x1 = 0.7949	6.023 ± 0.064
303.15 K, 101.33 kPa, x1 = 0.8949	7.33 ± 0.076
308 K, 101 kPa, x2 = 0.0801	6.912 ± 0.049
308 K, 101 kPa, x2 = 0.2421	5.397 ± 0.04
308 K, 101 kPa, x2 = 0.3455	4.468 ± 0.033
308 K, 101 kPa, x2 = 0.4703	3.396 ± 0.025
308 K, 101 kPa, x2 = 0.5762	2.579 ± 0.019
308 K, 101 kPa, x2 = 0.6347	2.14 ± 0.016
308 K, 101 kPa, x2 = 0.7203	1.702 ± 0.013
308 K, 101 kPa, x2 = 0.8752	1.061 ± 0.0084
308 K, 101 kPa, x2 = 0.9408	0.86 ± 0.0069
313.15 K, 100 kPa, x2 = 0.0822	5.95 ± 0.48
313.15 K, 100 kPa, x2 = 0.1602	5.22 ± 0.42
313.15 K, 100 kPa, x2 = 0.2397	4.53 ± 0.36
313.15 K, 100 kPa, x2 = 0.3476	3.69 ± 0.3
313.15 K, 100 kPa, x2 = 0.4402	3.04 ± 0.24
313.15 K, 100 kPa, x2 = 0.5604	2.29 ± 0.18
313.15 K, 100 kPa, x2 = 0.6506	1.82 ± 0.15
313.15 K, 100 kPa, x2 = 0.7397	1.43 ± 0.12
313.15 K, 100 kPa, x2 = 0.8508	1.05 ± 0.08
313.15 K, 100 kPa, x2 = 0.94	0.81 ± 0.07
323.15 K, 100 kPa, x2 = 0.0822	4.35 ± 0.35
323.15 K, 100 kPa, x2 = 0.1602	3.85 ± 0.31
323.15 K, 100 kPa, x2 = 0.2397	3.36 ± 0.27
323.15 K, 100 kPa, x2 = 0.3476	2.78 ± 0.22
323.15 K, 100 kPa, x2 = 0.4402	2.35 ± 0.19
323.15 K, 100 kPa, x2 = 0.5604	1.84 ± 0.15
323.15 K, 100 kPa, x2 = 0.6506	1.51 ± 0.12
323.15 K, 100 kPa, x2 = 0.7397	1.22 ± 0.1
323.15 K, 100 kPa, x2 = 0.8508	0.91 ± 0.07
323.15 K, 100 kPa, x2 = 0.94	0.71 ± 0.06
